Experimental findings from PMC11144196, “Structural basis for human mitochondrial tRNA maturation” (Nature Communications, 2024) are described below.

Experiment [1] deals with T1, TRNT1 (Homo sapiens, UniProt Q96Q11).
T1 construct: residues 42-434, no mitochondrial transport signal; N-terminal His6-TEV tag cleaved; E. coli KRX
T1 sequence (Q96Q11 42-434): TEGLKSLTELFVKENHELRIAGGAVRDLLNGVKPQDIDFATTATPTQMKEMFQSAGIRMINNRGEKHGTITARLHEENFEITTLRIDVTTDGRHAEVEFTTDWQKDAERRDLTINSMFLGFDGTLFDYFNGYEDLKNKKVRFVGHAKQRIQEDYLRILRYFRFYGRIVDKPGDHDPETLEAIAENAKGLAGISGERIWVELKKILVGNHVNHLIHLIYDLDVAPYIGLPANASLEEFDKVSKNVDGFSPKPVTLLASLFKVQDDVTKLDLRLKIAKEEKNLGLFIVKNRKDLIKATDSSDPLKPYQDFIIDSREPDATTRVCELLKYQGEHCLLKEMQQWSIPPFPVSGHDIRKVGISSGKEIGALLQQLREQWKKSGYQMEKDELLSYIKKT
The experiment is described as follows: differential scanning fluorimetry (SYPRO Orange). In kind it is binding. Conditions: 5 uM protein, pH 7.5, 150 mM NaCl; thermal stabilisation. A general note: Differential scanning fluorimetry follows unfolding on heating by fluorescence.

The target in experiment [2] is T2, TRMT10C/SDR5C1 complex (NADH site in SDR5C1) (Homo sapiens, UniProt Q99714).
T2 construct: gene HSD17B10; SDR5C1 residues 1-261 co-expressed with TRMT10C residues 40-403 in E. coli; SDR5C1 tetramer; HisTrap purified; with tRNA methyltransferase 10 homolog C
T2 sequence (Q99714 1-261): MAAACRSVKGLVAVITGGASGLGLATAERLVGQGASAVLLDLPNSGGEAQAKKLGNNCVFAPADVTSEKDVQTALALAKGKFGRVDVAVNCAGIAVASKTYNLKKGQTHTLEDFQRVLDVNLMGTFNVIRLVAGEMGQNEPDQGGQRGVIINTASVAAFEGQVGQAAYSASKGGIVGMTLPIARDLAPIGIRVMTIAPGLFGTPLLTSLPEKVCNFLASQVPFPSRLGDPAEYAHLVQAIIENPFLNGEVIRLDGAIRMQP
T2 sequence (Q7L0Y3 40-403 partner): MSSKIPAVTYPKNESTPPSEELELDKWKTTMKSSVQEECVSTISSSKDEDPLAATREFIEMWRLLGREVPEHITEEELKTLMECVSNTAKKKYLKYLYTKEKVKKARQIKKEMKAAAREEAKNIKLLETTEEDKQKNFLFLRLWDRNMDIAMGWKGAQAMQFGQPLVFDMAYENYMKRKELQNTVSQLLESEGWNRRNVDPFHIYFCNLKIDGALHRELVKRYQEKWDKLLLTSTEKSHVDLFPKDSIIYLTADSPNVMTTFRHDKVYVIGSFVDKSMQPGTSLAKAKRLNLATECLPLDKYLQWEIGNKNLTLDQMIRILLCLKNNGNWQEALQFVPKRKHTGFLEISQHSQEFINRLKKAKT
The experiment is described as follows: differential scanning fluorimetry (SYPRO Orange). It is filed as binding. The settings on record: 5 uM protein, pH 7.5, 150 mM NaCl; thermal stabilisation.

For experiment [3], the target named is T3, TRMT10C/SDR5C1 complex (SAM/SAH site in TRMT10C) (Homo sapiens, UniProt Q7L0Y3).
T3 construct: TRMT10C residues 40-403 (no mitochondrial transport signal) co-expressed with SDR5C1 residues 1-261 in E. coli; 2:4 TRMT10C:SDR5C1; HisTrap purified; with 3-hydroxyacyl-CoA dehydrogenase type-2
T3 sequence (Q7L0Y3 40-403): T2 sequence (Q7L0Y3 40-403 partner)
T3 sequence (Q99714 1-261 partner): T2 sequence (Q99714 1-261)
The experiment is described as follows: 3H-methyl transfer to pre-tRNA, scintillation counting. It is filed as biochemical. The settings on record: pre-tRNA-Ile (G9) or pre-tRNA-His-Ser (A9), pH 8.5, 5 mM MgCl2, 37 °C; labelled compound.

The target of experiment [4] is T3, TRMT10C/SDR5C1 complex (SAM/SAH site in TRMT10C). The experiment is described as follows: cryo-EM structure. It is filed as binding. The settings on record: methyltransferase active site of TRMT10C; with NADH and pre-tRNA-Ile (8CBO); also with PRORP D479A (8CBK), ELAC2 H548A (8CBL) or TRNT1 (8CBM).
Experiment [5] shares this target. Description: differential scanning fluorimetry (SYPRO Orange). In kind it is binding. Conditions: 5 uM protein, pH 7.5, 150 mM NaCl; thermal stabilisation.
Experiment [6] has as its target T1, TRNT1. Description: cryo-EM structure. It is filed as binding. The settings on record: TRNT1 active site; complex with TRMT10C(SAH)/SDR5C1(NADH)/tRNA-Ile; 0.5 mM CDP, pH 8.0.
Experiment [7] deals with T4, ELAC2 H548A (residues 31-826) (human, UniProt Q9BQ52 31-826, H548A).
T4 construct: human ELAC2 (long-form RNase Z), UniProt Q9BQ52, residues 31-826; pET28a-derived vector, His6-TEV site; treated with TEV protease; also called mt-RNase Z; source: E. coli KRX, purified like WT (HisTrap, Resource Q, TEV, SEC); not shown: His6, N-terminal, cleaved
T4 sequence (looked up): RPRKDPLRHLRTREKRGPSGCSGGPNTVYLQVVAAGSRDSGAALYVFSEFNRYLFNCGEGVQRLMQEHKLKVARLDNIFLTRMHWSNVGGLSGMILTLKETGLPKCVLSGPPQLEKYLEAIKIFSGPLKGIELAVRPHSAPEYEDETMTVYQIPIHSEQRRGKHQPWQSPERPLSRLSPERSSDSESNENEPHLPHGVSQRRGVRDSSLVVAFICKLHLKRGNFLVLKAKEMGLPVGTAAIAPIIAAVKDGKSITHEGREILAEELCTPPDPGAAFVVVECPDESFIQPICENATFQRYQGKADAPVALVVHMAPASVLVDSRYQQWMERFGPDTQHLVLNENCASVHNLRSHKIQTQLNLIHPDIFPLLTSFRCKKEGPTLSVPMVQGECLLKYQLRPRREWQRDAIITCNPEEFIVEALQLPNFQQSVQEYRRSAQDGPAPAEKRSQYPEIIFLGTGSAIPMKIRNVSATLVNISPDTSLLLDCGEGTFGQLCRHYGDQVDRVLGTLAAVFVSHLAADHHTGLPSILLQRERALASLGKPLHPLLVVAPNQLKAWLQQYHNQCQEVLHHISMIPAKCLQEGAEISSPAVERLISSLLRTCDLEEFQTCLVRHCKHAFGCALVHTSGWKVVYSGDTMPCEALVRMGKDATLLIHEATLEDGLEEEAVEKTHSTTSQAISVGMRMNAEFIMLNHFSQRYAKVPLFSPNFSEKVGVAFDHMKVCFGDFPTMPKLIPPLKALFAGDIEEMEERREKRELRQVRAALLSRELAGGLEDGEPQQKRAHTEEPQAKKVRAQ
The experiment is described as follows: cryo-EM structure; Complex 3: 1 uM TRMT10C/SDR5C1, 10 uM SAH, 10 uM NADH, 5 uM pre-tRNA^His(0,Ser), then 5 uM ELAC2 H548A; 50 mM Tris pH 8.0, 100 mM NaCl, 1 mM TCEP; ELAC2 sits on the pre-tRNA held by the subcomplex. The settings on record: both partners purified.

In experiment [8] the target is T5, PRORP D479A (residues 45-583) (human, UniProt O15091 45-583, D479A).
T5 construct: human PRORP (protein-only RNase P endoribonuclease), UniProt O15091, residues 45-583; pET28a-derived vector, His6-TEV site; treated with TEV protease; source: E. coli BL21(DE3) Rosetta, purified like WT (HisTrap, TEV, SEC); not shown: His6, N-terminal, cleaved
T5 sequence (looked up): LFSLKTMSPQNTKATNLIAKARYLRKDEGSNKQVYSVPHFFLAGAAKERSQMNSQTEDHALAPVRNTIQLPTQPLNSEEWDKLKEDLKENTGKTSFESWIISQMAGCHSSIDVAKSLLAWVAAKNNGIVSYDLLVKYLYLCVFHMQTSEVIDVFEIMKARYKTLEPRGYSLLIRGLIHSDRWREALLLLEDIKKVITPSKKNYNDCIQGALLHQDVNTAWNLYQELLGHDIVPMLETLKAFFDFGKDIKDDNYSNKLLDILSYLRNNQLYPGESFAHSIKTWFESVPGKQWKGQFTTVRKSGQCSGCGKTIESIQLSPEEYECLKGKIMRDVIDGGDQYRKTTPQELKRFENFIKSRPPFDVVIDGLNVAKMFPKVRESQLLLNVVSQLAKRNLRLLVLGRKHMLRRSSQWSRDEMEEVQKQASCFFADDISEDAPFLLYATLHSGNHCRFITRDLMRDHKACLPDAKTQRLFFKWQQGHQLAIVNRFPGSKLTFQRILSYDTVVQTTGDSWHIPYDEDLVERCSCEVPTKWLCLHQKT
Description: cryo-EM structure; Complex 2: 4 uM TRMT10C/SDR5C1, 40 uM SAH, 40 uM NADH, 20 uM pre-tRNA^His-Ser, then 10 uM PRORP D479A; 50 mM Tris pH 8.0, 100 mM NaCl, 1 mM TCEP; PRORP sits on the pre-tRNA held by the subcomplex. Conditions: both partners purified.

For `Nc1ccn([C@@H]2O[C@H](COP(=O)(O)OP(=O)(O)OP(=O)(O)O)[C@@H](O)[C@H]2O)c(=O)n1` [CTP], the Tm result on TRNT1 [1] was “CTP, ATP or CDP to TRNT1 stabilised these enzymes”.
On to `NC(=O)C1=CN([C@@H]2O[C@H](COP(=O)(O)OP(=O)(O)OC[C@H]3O[C@@H](n4cnc5c(N)ncnc54)[C@H](O)[C@@H]3O)[C@@H](O)[C@H]2O)C=CC1` [NADH], for which the Tm result in experiment [2] is “NADH to SDR5C1 and CTP, ATP or CDP to TRNT1 stabilised these enzymes”.
Take `C[S+](CC[C@H](N)C(=O)O)C[C@H]1O[C@@H](n2cnc3c(N)ncnc32)[C@H](O)[C@@H]1O` (stereo partly shown) [SAM]: in experiment [3], the “3H-methyl transfer to pre-tRNA, scintillation counting” value is recorded as “Methylation assays, using ^3H-SAM as methyl donor, showed that the TRMT10C/SDR5C1 complex methylates”.
For `Nc1ncnc2c1ncn2[C@@H]1O[C@H](CSCC[C@H](N)C(=O)O)[C@@H](O)[C@H]1O` [SAH], the cryo-EM structure result in experiment [4] is recorded as “In all the structures, the TRMT10C catalytic pocket contains SAH”. Also, the Tm result in experiment [5] is recorded as “addition of co-factors or co-factor analogues, i.e. SAH to TRMT10C”.
For the molecule `Nc1ccn([C@@H]2O[C@H](COP(=O)(O)OP(=O)(O)O)[C@@H](O)[C@H]2O)c(=O)n1` [CDP], the Tm entry on TRNT1 [1] is reported as “CTP, ATP or CDP to TRNT1 stabilised these enzymes”. In addition, the cryo-EM structure result at TRNT1 [6] is reported as “a molecule of CDP that is likely π-stacked with the substrate A73 nucleotide”.
Turning to `Nc1ncnc2c1ncn2[C@@H]1O[C@H](COP(=O)(O)OP(=O)(O)OP(=O)(O)O)[C@@H](O)[C@H]1O` [ATP], the Tm result on TRNT1 [1] was “CTP, ATP or CDP to TRNT1 stabilised these enzymes”.

B1: TRMT10C (residues 40-403, without the mitochondrial transport signal) (enzyme, human, UniProt Q7L0Y3 40-403, looked up)
chain: T2 sequence (Q7L0Y3 40-403 partner)
notes: human TRMT10C, tRNA methyltransferase of mitochondrial RNase P, UniProt Q7L0Y3, residues 40-403; The subcomplex was purified on a HisTrap column; also called MTase; source: E. coli BL21(DE3) Rosetta, co-expressed with SDR5C1, purified (HisTrap, SEC, heparin, SEC)
Take B1: the binding result in experiment [7] and in experiment [8] was “binds” throughout.
